Patent US6218384A, “3-Oxo-pyrido(1,2-a)benzimidazole-4-carboxyl and 4-oxo-azepino(1,2-a)benzimidazole-5-carboxyl derivatives useful in treating central nervous system disorders” (Ortho-McNeil Pharmaceutical, Inc., priority 1997, dated 2001)
Read-outs that look alike come from different tables or passages of the source.

Assays:
[1] = Suppression of metrazol-induced convulsions; format: in vivo, male CD1 mice; conditions: mice; for Metrazol (ip) ED50: 30 min; for ED50: Mus musculus, 0.5 h
Protocol: Selected compounds of the invention were tested for their ability to reduce metrazol-induced convulsions in mice (Swinyard, E. A. J. Am. Pharm Assoc. 1949, 38, 201). Male CD1 mice, were fasted at least 16 hours, were divided into equal groups and test compounds or vehicle were administered parenterally. Water was not withheld except during the period of observations. At the time of suspected peak activity, anti-pentylenetetrazol (anti-metrazol) activity was evaluated by the subcutaneous administration of the CD90 dose of metrazol (the dose of metrazol was determined from the dose-response curve producing clonic convulsions in 90% of animals that received the corresponding vehicle for this experiment). Metrazol was dissolved in 0.9% sodium chloride solution, and its dose volume was 10 ml/kg. Animals were housed individually for observation of clonic convulsions, tonic convulsions and death for a period of 30 min. Test compounds that blocked the clonic seizure component of the convulsion in at least 50% of the animals were considered active. The biological assay was considered to be valid if the effects of a known anticonvulsant (positive control) were detected, within the same experiment. Activity was reported as percent reduction of clonic convulsions from the vehicle group. The ED50 values of active compounds were calculated by the method of probits (Finney, D. J. 1971. Probit Analysis. London: Cambridge University Press) and are listed in Tables 1 to 5.

[2] = biological target: benzodiazepine site of the GABA-A receptor; assay: Benzodiazepine Receptor Binding Assay (inhibition of 3H-flunitrazepam binding); conditions: ca. 3 nM 3H-flunitrazepam
[3] = Suppression of anxiety (punished licking, conflict test) in the adult male rat; format: in vivo, male rats
Protocol: The anxiolytic activity of selected compounds of the invention was assessed by determining their ability to release (disinhibit) behavior that had been suppressed by punishment (Vogel, J. R. et al. Psychopharmacology 1971, 21, 1). Male rats were deprived of water for 48 hours and were deprived of food for 24 hours prior to testing. After the first 24 hours of water deprivation, they were placed in the conflict chamber for a training period; wherein, they were allowed 200 unpunished licks from a bottle containing tap water. The experiment was run the next day. At the expected time of peak activity, the animals were placed in the chamber and allowed access to tap water. […] Their first lick initiates a 3-min test session. Subsequently,every 20th lick was punished by a 0.2-s shock delivered via the stainless-steel drinking-tube. Vehicle-treated control animals generally were willing to accept a median number of 3 to 8 shocks per test session. […] The Wilcoxon rank-sum test (Mann-WhitneyU-test) was used to test for an increase (p<0.05, 1-tailed) in the median number of shocks in drug-treated groups, compared to a concurrently run vehicle-treated group. The biological assay is considered to be valid if the effects of a known anxiolytic (positive control) are detected, within the same experiment. A compound was considered active if there is a significant difference in the median number of shocks tolerated between the drug-treated group and the control group. The MED was defined as the minimum dose of the drug-treatment as analyzed using the Wilcoxon rank-sum test (SAS; Statistical Analysis System, version 5.16). If the MED value is greater than 10, an active dose of the compound being tested had not been determined.

[4] = Table 1, ip, clonic convulsions after sc CD90 metrazol, >30 = active dose not determined
[5] = Table 1, 25° C., 10-20 min, >10,000 = not active
[6] = Table 1, ip, minimum effective dose, >10 = active dose not determined
[7] = Table 1, ip, clonic convulsions after sc CD90 metrazol, >30 = active dose not determined, read-out: Metrazol (ip) ED50
[8] = Table 1, ip, minimum effective dose, >10 = active dose not determined, read-out: Conflict (ip) MED

| Molecule | IC50 [2, 5] [nM] | ED50 [1, 7] [mg/kg] | minimal effective dose [3, 8] [mg/kg] | further results |
| --- | --- | --- | --- | --- |
| 1,2-Dihydro-3-hydroxy-N-phenylpyrido(1,2-a)benzimidazole-4-thiocarboxamide [CP 117] | 46 | – | – | Metrazol (ip) ED50 [1, 4]: > 30 mg/kg; Conflict (ip) MED [3, 6]: 10 mg/kg |
| 1,2-Dihydro-5-ethyl-3-oxo-N-(2-fluorophenyl)-pyrido(1,2-a)benzimidazole-4-carboxamide [CP 123] | 620 | – | – | Metrazol (ip) ED50 [1, 4]: 5 mg/kg; Conflict (ip) MED [3, 6]: 1 mg/kg |
| O=C1CCN2C(=C1C(=O)NCCc1ccccc1)Nc1ccccc12 [compound 2] | 280 | 10 to 30 | > 10 | – |
| O=C1CCN2C(=C1C(=O)Nc1cccc(Cl)c1)Nc1ccccc12 [compound 6] | 120 | > 30 | > 10 | – |
| COc1ccc(NC(=O)C2=C3Nc4ccccc4N3CCC2=O)cc1OC [compound 8] | 32 | > 30 | > 10 | – |
| COc1ccc2c(c1)NC1=C(C(=O)Nc3ccccc3)C(=O)CCN12 [compound 12] | 40 | 3 | > 10 | – |
| O=C1CCN2C(=C1C(=O)Nc1c(Cl)cccc1Cl)Nc1ccccc12 [compound 14] | 320 | 30 | > 10 | – |
| O=C1CCN2C(=C1C(=O)Nc1cccc(C(F)(F)F)c1)Nc1ccccc12 [compound 15] | 300 | > 10 | > 10 | – |
| O=C1CCN2C(=C1C(=O)Nc1ccccc1)Nc1cc(C(F)(F)F)ccc12 [compound 16] | 960 | – | – | – |
| Nc1ccc(NC(=O)C2=C3Nc4ccccc4N3CCC2=O)cc1 [compound 18] | 13000 | 3 | > 10 | – |
| O=C1CCN2C(=C1C(=O)Nc1ccccc1F)Nc1ccccc12 [compound 20] | 1.7 | 0.1 | 1 | – |
| COc1cccc(NC(=O)C2=C3Nc4ccccc4N3CCC2=O)c1 [compound 21] | 26 | 0.3 | 5 | – |
| O=C1CCN2C(=C1C(=O)Nc1ccccn1)Nc1ccccc12 [compound 22] | 59 | 10 | 10 | – |
| CSc1ccc(NC(=O)C2=C3Nc4ccccc4N3CCC2=O)cc1 [compound 23] | 400 | 10 | > 10 | – |
| CN(C)c1ccc(NC(=O)C2=C3Nc4ccccc4N3CCC2=O)cc1 [compound 24] | 270 | 3 | 3 | – |
| O=C1CCN2C(=C1C(=O)Nc1ccccc1Cl)Nc1ccccc12 [compound 25] | 12 | 1 | 10 | – |
| COc1ccccc1NC(=O)C1=C2Nc3ccccc3N2CCC1=O [compound 26] | 990 | > 10 | > 10 | – |
| CCOC(=O)c1ccc(NC(=O)C2=C3Nc4ccccc4N3CCC2=O)cc1 [compound 27] | > 10000 | > 30 | < 10 | – |
| O=C1CCN2C(=C1C(=O)Nc1ccc(C(=O)O)cc1)Nc1ccccc12 [compound 28] | > 10000 | > 30 | 10 | – |
| NC(=O)C1=C2Nc3ccccc3N2CCC1=O [compound 29] | 2400 | > 3 | 10 | – |

| Molecule | IC50 [2, 5] [nM] | ED50 [1, 7] [mg/kg] | minimal effective dose [3, 8] [mg/kg] | further results |
| --- | --- | --- | --- | --- |
| O=C1CCN2C(=C1C(=O)Nc1ccc3[nH]ccc3c1)Nc1ccccc12 [compound 30] | 530 | > 30 | > 10 | – |
| Cc1ccccc1NC(=O)C1=C2Nc3ccccc3N2CCC1=O [compound 31] | 230 | > 30 | 10 | – |
| O=C1CCN2C(=C1C(=O)NCc1ccccc1)Nc1ccccc12 [compound 32] | 38 | > 30 | > 10 | – |
| O=C1CCN2C(=C1C(=O)Nc1ccc3c(c1)CCN3)Nc1ccccc12 [compound 33] | 54 | > 30 | 10 | – |
| CN(C)c1cccc(NC(=O)C2=C3Nc4ccccc4N3CCC2=O)c1 [compound 34] | 37 | 4 | > 10 | – |
| O=C1CCN2C(=C1C(=O)Nc1ccncc1)Nc1ccccc12 [compound 35] | 160 | 2 | 3 | – |
| O=C1CCN2C(=C1C(=O)Nc1c(F)cccc1F)Nc1ccccc12 [compound 36] | 2.8 | 1 | 0.1 | – |
| COc1ccc2c(c1)NC1=C(C(=O)NC3CCCCC3)C(=O)CCN12 [compound 37] | 800 | 10 | 10 | – |
| CCCCNC(=O)C1=C2Nc3ccccc3N2CCC1=O [compound 38] | 54 | > 10 | > 10 | – |
| O=C1CCN2C(=C1C(=O)Nc1ccncn1)Nc1ccccc12 [compound 39] | 480 | > 10 | 10 | – |
| CN(C)c1ccc(NC(=O)C2=C3Nc4ccccc4N3CCC2=O)c(F)c1 [compound 86] | 120 | 1 | – | – |
| O=C1CCN2C(=C1C(=O)Nc1c(Cl)cc(Cl)cc1Cl)Nc1ccccc12 [compound 101] | – | > 10 | > 10 | – |
| O=C1CCN2C(=C1C(=O)Nc1ccncc1F)Nc1cc(F)ccc12 [compound 110] | 12 | – | – | – |
| O=C1CCN2C(=C1C(=O)Nc1ccc(F)cc1F)Nc1cc(F)ccc12 [compound 111] | 3.3 | – | – | – |
| O=C1CCN2C(=C1C(=O)Nc1c(Cl)cccc1Cl)Nc1cc(F)ccc12 [compound 112] | 100 | – | – | – |
| O=C1CCN2C(=C1C(=O)Nc1cccnc1F)Nc1ccccc12 [compound 116] | – | 2 | > 10 | – |
| O=C1CCN2C(=C1C(=O)Oc1ccccc1)Nc1ccccc12 [compound 118] | – | – | – | ED50 ([1]; Table 2, ip, clonic convulsions, read-out: Antimetrazol (ip) ED50): 3 mg/kg; IC50 ([2]; Table 2): 200 nM |
| CC1CN2C(=C(C(=O)Nc3ccccc3F)C1=O)N(C)c1ccccc12 (stereo not shown) [compound 132] | – | – | – | ED50 ([1]; Table 3, parenteral, clonic convulsions, read-out: Antimetrazol ED50): 1 mg/kg; minimal effective dose ([3]; Table 3, minimum effective dose, read-out: Conflict MED): < 10 mg/kg |
| O=C1CCCN2C(=C1C(=O)Nc1ccncc1)N(Cc1ccccc1)c1ccccc12 [compound 154] | – | – | – | ED50 ([1]; Table 5, parenteral, clonic convulsions, read-out: Antimetrazol ED50): > 10 mg/kg; IC50 ([2]; Table 5): 6700 nM |
